Legend:
ABUTH [1] = experiment: Pre-emergence herbicidal action against ABUTH; assay type: in vivo, Abutilon theophrasti; settings: for Pre-emergence action against ABUTH (herbicidal activity): 80 g/ha, scored visually after 3 weeks vs untreated controls (100% = plants have died, 0% = like control plants); for Pre-emergence action against ABUTH (herbicidal activity in percent): dosage 20 g/ha, scored visually after 3 weeks vs untreated controls, 100% = plants have died, 0% = like control plants
Method in brief: (§1)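 Sandy loam pots, seeds covered with soil, then surface-treated with WP or EC formulations at 600–800 l/ha water plus 0.2% wetting agent. Greenhouse, 3 weeks. Percent damage vs untreated controls.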

ALOMY [2] = experiment: Pre-emergence herbicidal action against ALOMY; assay type: in vivo, Alopecurus myosuroides; settings: 80 g/ha, pre-emergence, scored visually after 3 weeks vs untreated controls (100% = plants have died, 0% = like control plants)
Method in brief: as §1

AMARE [3] = experiment: Pre-emergence herbicidal action against AMARE; assay type: in vivo, Amaranthus retroflexus
Method in brief: as §1

MATIN [4] = experiment: Pre-emergence herbicidal action against MATIN; assay type: in vivo, Matricaria inodora
Method in brief: as §1

VIOTR [5] = experiment: Pre-emergence herbicidal action against VIOTR; assay type: in vivo, Viola tricolor
Method in brief: as §1

ABUTH [6] = experiment: Post-emergence herbicidal action against ABUTH; assay type: in vivo, Abutilon theophrasti; settings: visual assessment about 3 weeks after treatment vs untreated controls
Method in brief: (§2)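 Herbicidal action is a visual percentage rating (0% = as untreated control, 100% = plants dead) made roughly 3 weeks after treatment. Plants were grown in sandy loam in the greenhouse and treated at the one-leaf stage, 2 to 3 weeks post-sowing. Treatment was a foliar spray of wettable-powder or emulsion-concentrate formulations at 600 to 800 l/ha water plus 0.2% wetting agent.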

AMARE [7] = experiment: Post-emergence herbicidal action against AMARE; assay type: in vivo, Amaranthus retroflexus; settings: 20 g/ha, visual assessment about 3 weeks after treatment, 100% = plants have died, 0% = like control plants
Method in brief: as §2

MATIN [8] = experiment: Post-emergence herbicidal action against MATIN; assay type: in vivo, Matricaria inodora; settings: dosage 20 g/ha
Description: (§3) Seeds of monocotyledonous and dicotyledonous weed and crop plants are laid out in sandy loam soil in wood-fiber pots, covered with soil and cultivated in a greenhouse under good growth conditions. 2 to 3 weeks after sowing, the test plants are treated at the one-leaf stage. The compounds of the invention, formulated in the form of wettable powders (WP) or as emulsion concentrates (EC), are then sprayed onto the green parts of the plants in the form of an aqueous suspension or emulsion at a water application rate equivalent to 600 to 800 l/ha, with addition of 0.2% wetting agent. After the test plants have been left to stand in the greenhouse under optimal growth conditions for about 3 weeks, the action of the preparations is assessed visually in comparison to untreated controls (herbicidal action in percent (%): 100% activity=the plants have died, 0% activity=like control plants). […] The tables below illustrate, in an illustrative manner, the post-emergence herbicidal action of the compounds of the invention, the herbicidal activity being stated in percent.

PHBPU = experiment: Post-emergence herbicidal action against PHBPU; assay type: in vivo, Pharbitis purpurea
Method in brief: as §2

VERPE [9] = experiment: Post-emergence herbicidal action against VERPE; assay type: in vivo, Veronica persica; settings: 20 g/ha
Description: as §3

VIOTR [10] = experiment: Post-emergence herbicidal action against VIOTR; assay type: in vivo, Viola tricolor; settings: 20 g/ha
Description: as §3

DIGSA [11] = experiment: Pre-emergence herbicidal action against DIGSA; assay type: in vivo, Digitaria sanguinalis
Method in brief: as §1

ALOMY [12] = experiment: Post-emergence herbicidal action against ALOMY; assay type: in vivo, Alopecurus myosuroides; settings: dosage 20 g/ha, visual assessment about 3 weeks after treatment vs untreated controls
Description: as §3

ECHCG [13] = experiment: Pre-emergence herbicidal action against ECHCG; assay type: in vivo, Echinochloa crus-galli
Method in brief: as §1

SETVI [14] = experiment: Pre-emergence herbicidal action against SETVI; assay type: in vivo, Setaria viridis
Method in brief: as §1

ECHCG [15] = experiment: Post-emergence herbicidal action against ECHCG; assay type: in vivo, Echinochloa crus-galli
Method in brief: as §2

SETVI [16] = experiment: Post-emergence herbicidal action against SETVI; assay type: in vivo, Setaria viridis; settings: dosage 20 g/ha
Method in brief: as §2

AVEFA = experiment: Pre-emergence herbicidal action against AVEFA; assay type: in vivo, Avena fatua; settings: 80 g/ha, pre-emergence
Source text: (§4) Seeds of monocotyledonous and dicotyledonous weed plants and crop plants are laid out in sandy loam soil in wood-fiber pots and covered with soil. The compounds of the invention, formulated in the form of wettable powders (WP) or as emulsion concentrates (EC), are then applied to the surface of the covering soil in the form of an aqueous suspension or emulsion at a water application rate equivalent to 600 to 800 l/ha, with addition of 0.2% wetting agent. After the treatment, the pots are placed in a greenhouse and kept under good growth conditions for the trial plants. The damage to the test plants is scored visually after a test period of 3 weeks by comparison with untreated controls (herbicidal activity in percent (%): 100% activity=the plants have died, 0% activity=like control plants). […] The tables below illustrate, in an illustrative manner, the post-emergence herbicidal action of the compounds of the invention, the herbicidal activity being stated in percent.

DIGSA [17] = experiment: Post-emergence herbicidal action against DIGSA; assay type: in vivo, Digitaria sanguinalis; settings: 20 g/ha
Method in brief: as §2

VERPE [18] = experiment: Pre-emergence herbicidal action against VERPE; assay type: in vivo, Veronica persica; settings: dosage 80 g/ha
Source text: as §4

[19] = 20 g/ha, scored visually after 3 weeks vs untreated controls, 100% = plants have died, 0% = like control plants
[20] = 80 g/ha, scored visually after 3 weeks vs untreated controls (100% = plants have died, 0% = like control plants)

Row | SMILES | Pre-emergence action against ABUTH (herbicidal activity) (ABUTH [1]) | Pre-emergence action against ALOMY (herbicidal activity) (ALOMY [2]) | Pre-emergence action against AMARE in % (AMARE [3]; [19]) | Pre-emergence action against AMARE in % (AMARE [3]; [20]) | Pre-emergence action against MATIN in % (MATIN [4]; dosage 20 g/ha) | Pre-emergence action against MATIN in % (MATIN [4]; dosage 80 g/ha) | Pre-emergence action against VIOTR in % (VIOTR [5]; dosage 80 g/ha) | Post-emergence action against ABUTH in % (ABUTH [6]; dosage 20 g/ha) | Post-emergence action at 20 g/ha against AMARE in % (AMARE [7]) | Post-emergence action against PHBPU in % (PHBPU; dosage 20 g/ha) | Pre-emergence action against ABUTH (herbicidal activity in percent) (ABUTH [1]) | Post-emergence action against ALOMY in % (ALOMY [12]) | Pre-emergence action against ECHCG in % (ECHCG [13]; 80 g/ha) | Pre-emergence action against SETVI in % (SETVI [14]; dosage 80 g/ha) | Post-emergence action against ECHCG in % (ECHCG [15]; dosage 20 g/ha) | other results
1 | CCNC(=O)c1c(OC)ccc(C(=O)Nc2nnnn2CC)c1Cl [Example 2-353] | 100% | 90% | 100% | 100% | 90% | 100% | 100% | 100% | 100% | 80% |  |  |  |  |  | Pre-emergence action against VIOTR in % (VIOTR [5]; dosage 20 g/ha): 90%; Post-emergence action against ABUTH in % (ABUTH [6]; dosage 5 g/ha): 90%; Post-emergence action against MATIN in % (MATIN [8]): 80%; Post-emergence action against PHBPU in % (PHBPU; dosage 5 g/ha): 80%; Post-emergence action against VERPE in % (VERPE [9]): 100%; Post-emergence action against VIOTR in % (VIOTR [10]): 80%
2 | CCn1nnnc1NC(=O)c1ccc(C(F)(F)F)c(C(=O)NCC#N)c1C [Example 2-36] | 100% |  | 100% | 100% |  | 90% | 100% |  | 90% |  | 90% | 90% |  |  |  | Pre-emergence action against DIGSA in % (DIGSA [11]; dosage 80 g/ha): 90%
3 | Cc1nnc(NC(=O)c2ccc(C(F)(F)F)c(C(=O)NCC3CC3)c2Br)o1 [Example 6-161] | 100% | 90% | 100% | 100% | 100% | 100% | 80% | 90% | 100% | 80% | 100% | 90% | 100% | 100% | 90% | Pre-emergence action against ECHCG in % (ECHCG [13]; 20 g/ha): 80%; Post-emergence action against ECHCG in % (ECHCG [15]; dosage 5 g/ha): 90%; Post-emergence action against SETVI in % (SETVI [16]): 90%
4 | CCn1nnnc1NC(=O)c1ccc(C(F)(F)F)c(C(=O)NCC(F)(F)F)c1Br [Example 2-211] | 100% | 90% | 100% | 100% | 90% | 100% | 80% | 80% | 90% | 80% | 100% | 80% | 90% | 100% | 80% | Pre-emergence action against AVEFA in % (AVEFA): 80%; Post-emergence action against ABUTH in % (ABUTH [6]; dosage 5 g/ha): 80%; Post-emergence action against MATIN in % (MATIN [8]): 80%; Post-emergence action against PHBPU in % (PHBPU; dosage 5 g/ha): 80%; Post-emergence action against SETVI in % (SETVI [16]): 90%; Post-emergence action against DIGSA (DIGSA [17]): 80%
5 | CCn1nnnc1NC(=O)c1ccc(C(F)F)c(C(=O)NCC(=O)N(C)C)c1Cl [Example 2-160] | 90% |  | 100% | 100% |  | 90% | 100% | 90% | 100% |  |  | 80% |  |  |  | Pre-emergence action against VERPE in % (VERPE [18]): 80%
6 | CN(C)C(=O)CNC(=O)c1c(C(F)F)ccc(C(=O)Nc2nnnn2C)c1Cl [Example 1-160] | 80% |  | 100% | 100% |  | 80% | 80% |  | 100% |  |  | 80% |  |  |  | 
7 | Cc1c(C(=O)Nc2nnnn2C)ccc(C(F)(F)F)c1C(=O)NCC1CCCO1 (centres unmarked) [Example 1-37] |  | 100% | 100% | 100% |  | 90% | 100% |  |  | 80% |  |  | 80% | 100% | 80% | Pre-emergence action against SETVI in % (SETVI [14]; dosage 20 g/ha): 90%; Pre-emergence action against DIGSA in % (DIGSA [11]; dosage 20 g/ha): 80%; Pre-emergence action against DIGSA in % (DIGSA [11]; dosage 80 g/ha): 100%; Post-emergence action against ECHCG in % (ECHCG [15]; dosage 5 g/ha): 80%; Post-emergence action against VERPE in % (VERPE [9]): 80%; Post-emergence action against VIOTR in % (VIOTR [10]): 80%

Reference: US12655116B2, “Substituted isophthalic acid diamides” (Bayer Aktiengesellschaft, priority 2020, dated 2026)
